Test results reported in US10201523B2, “Use of wilforlide A for overcoming chemotherapy resistance” (WESTERN UNIVERSITY OF HEALTH SCIENCES, priority 2013, dated 2019).
Several values for one entry are separate records, joined by “and”; a condition that tells them apart may be missing. Equal values may be shown once.

How the values were obtained:
DU145-TxR = assay: SRB cell viability assay, docetaxel with/without wilforlide A pretreatment; assay type: cell-based; settings: DU145-TxR; for viability at 1 pM / viability at 0.0001 µM / viability at 0.000333 µM / viability at 0.001 µM / viability at 0.00333 µM / viability at 0.01 µM / viability at 0.0333 µM / viability at 0.1 µM: 72 h; for A at 565 nm: background = 0.046
Description: FIG. 4 summarizes the data of Tables 18 and 19 in a graphical format.

PC3 = assay: as above; settings: PC3
Description: Following the 72 hour wilforlide A treatment, a sulforhodamine B (SRB) assay was used to quantitate living cells. To perform the assay, the wilforlide A media was aspirated from each well, and replaced with a 10% solution of cold trichloroacetic acid (TCA) (Cat #: T6399, purchased from Sigma-Aldrich), and incubated for one hour at 4° C. After the TCA incubation, the TCA solution was aspirated, and the cells were washed five times with tap water. After removing the last wash, the plates were left with lids off at room temperature until the surfaces were dry, which took one to two hours. Then 50 μl of a 0.4% solution of sul-forhodamine B (SRB) sodium salt (Cat #: S9012, purchased from Sigma-Aldrich) was added to each well and the plates were incubated at room temperature for 20 to 30 minutes. Afterwards, the wells were washed five times with a 1% acetic acid solution in 10 mM TRIS base (Cat #: 161-0719, purchased from Bio-Rad Laboratories, Hercules, Calif.). The plates were subsequently left to dry for several hours or overnight. SRB that remained in the dried wells was solubilized by adding 100 μl of SRB solubilization solution (10 mM TRIS base) to each well, and placing the plates either on a gently-moving shaker or letting the plates remain stationary at room temperature until the SRB dissolves, which takes about five to ten minutes. The amount of SRB in each well, which correlated directly to the number of living cells at fixation, was determined spectrophotometrically at an absorbance of 565 nm by a microplate reader.
In these comparisons, the in vitro IC50 of a tested chemotherapeutic drug (D) in cell culture was compared to the drug's IC50 when drug treatment followed pretreatment of the cells with wilforlide A (Purchased from PI & PI Technology Inc. of Guangzhou, China or the National Institutes for Food and Drug Control in Beijing, China).
Triplicate wells were assigned to each experimental condition tested, and a 24 hour recovery period for the cells following the seeding of the wells was allowed. During the recovery period, the cells were incubated at 37° C. and 5% CO2.
At the end of the two hour pre-treatment period, 50 μl aliquots of the desired chemotherapeutic drug RPMI medium were added according to the amounts provided in Table 2.
After adding the various doses of chemotherapeutic drugs, as described above, the cells were incubated for an additional 72 hours under the same temperature and atmospheric conditions used for the pre-treatment step.
The cells were then incubated for 72 hours at 37° C. and 5% CO2. After the 72 hour incubation, sulforhodamine B (SRB) assays were performed as described in Example 1 to quantitate living cells.

[1] = no wilforlide A pre-Tx, docetaxel 0.001 nM 72 h
[2] = no wilforlide A pre-Tx, docetaxel 0.1 nM 72 h
[3] = no wilforlide A pre-Tx, docetaxel 0.333 nM 72 h
[4] = no wilforlide A pre-Tx, docetaxel 1 nM 72 h
[5] = no wilforlide A pre-Tx, docetaxel 3.33 nM 72 h
[6] = no wilforlide A pre-Tx, docetaxel 10 nM 72 h
[7] = no wilforlide A pre-Tx, docetaxel 33.3 nM 72 h
[8] = no wilforlide A pre-Tx, docetaxel 100 nM 72 h
[9] = wilforlide A 2.5 μg/ml pre-Tx, docetaxel 0.001 nM 72 h
[10] = wilforlide A 2.5 μg/ml pre-Tx, docetaxel 0.1 nM 72 h
[11] = wilforlide A 2.5 μg/ml pre-Tx, docetaxel 0.333 nM 72 h
[12] = wilforlide A 2.5 μg/ml pre-Tx, docetaxel 1 nM 72 h
[13] = wilforlide A 2.5 μg/ml pre-Tx, docetaxel 3.33 nM 72 h
[14] = wilforlide A 2.5 μg/ml pre-Tx, docetaxel 10 nM 72 h
[15] = wilforlide A 2.5 μg/ml pre-Tx, docetaxel 33.3 nM 72 h
[16] = wilforlide A 2.5 μg/ml pre-Tx, docetaxel 100 nM 72 h
[17] = no wilforlide A pre-Tx (control of Table 4), docetaxel 0.001 nM 72 h
[18] = no wilforlide A pre-Tx (control of Table 4), docetaxel 0.1 nM 72 h
[19] = no wilforlide A pre-Tx (control of Table 4), docetaxel 0.333 nM 72 h
[20] = no wilforlide A pre-Tx (control of Table 4), docetaxel 1 nM 72 h
[21] = no wilforlide A pre-Tx (control of Table 4), docetaxel 3.33 nM 72 h
[22] = no wilforlide A pre-Tx (control of Table 4), docetaxel 10 nM 72 h
[23] = no wilforlide A pre-Tx (control of Table 4), docetaxel 33.3 nM 72 h
[24] = no wilforlide A pre-Tx (control of Table 4), docetaxel 100 nM 72 h
[25] = no wilforlide A pre-Tx (control of Table 6), docetaxel 0.001 nM 72 h
[26] = no wilforlide A pre-Tx (control of Table 6), docetaxel 0.1 nM 72 h
[27] = no wilforlide A pre-Tx (control of Table 6), docetaxel 0.333 nM 72 h
[28] = no wilforlide A pre-Tx (control of Table 6), docetaxel 1 nM 72 h
[29] = no wilforlide A pre-Tx (control of Table 6), docetaxel 3.33 nM 72 h

Work on `CC(=O)O[C@@]12CO[C@@H]1C[C@H](O)[C@@]1(C)C(=O)[C@H](O)C3=C(C)[C@@H](OC(=O)[C@H](O)[C@@H](NC(=O)OC(C)(C)C)c4ccccc4)C[C@@](O)([C@@H](OC(=O)c4ccccc4)[C@H]21)C3(C)C` [docetaxel] yielded a viability at 1 pM (DU145-TxR; [1]) of 100%, a viability at 0.0001 µM (DU145-TxR; [2]) of 104% and a viability at 0.000333 µM (DU145-TxR; [3]) of 99%. The viability at 0.001 µM (DU145-TxR; [4]) was 98.2%, the viability at 0.00333 µM (DU145-TxR; [5]) was 98.5% and the viability at 0.01 µM (DU145-TxR; [6]) was 101%. For the same compound, the viability at 0.0333 µM (DU145-TxR; [7]) was 99.2%, the viability at 0.1 µM (DU145-TxR; [8]) was 97.4% and the viability at 1 pM (DU145-TxR; [9]) was 100%. For the same compound, the viability at 0.0001 µM (DU145-TxR; [10]) was 104%, the viability at 0.000333 µM (DU145-TxR; [11]) was 102% and the viability at 0.001 µM (DU145-TxR; [12]) was 104%. The viability at 0.00333 µM (DU145-TxR; [13]) was 98.4%, the viability at 0.01 µM (DU145-TxR; [14]) was 102% and the viability at 0.0333 µM (DU145-TxR; [15]) was 94.1%. The viability at 0.1 µM (DU145-TxR; [16]) was 44.7%, the “mean A” value (DU145-TxR; [1]) was 2.257 and the “A at 565 nm” value (DU145-TxR; [1]) was 2.285 and 2.199 and 2.289. The “mean A” value (DU145-TxR; [2]) was 2.346, the “A at 565 nm” value (DU145-TxR; [2]) was 2.354 and 2.413 and 2.272 and the “mean A” value (DU145-TxR; [3]) was 2.235. The “A at 565 nm” value (DU145-TxR; [3]) was 2.281 and 2.251 and 2.175, the “mean A” value (DU145-TxR; [4]) was 2.216 and the “A at 565 nm” value (DU145-TxR; [4]) was 2.279 and 2.233 and 2.137. The “mean A” value (DU145-TxR; [5]) was 2.224, the “A at 565 nm” value (DU145-TxR; [5]) was 2.207 and 2.230 and 2.236 and the “mean A” value (DU145-TxR; [6]) was 2.272. For the same compound, the “A at 565 nm” value (DU145-TxR; [6]) was 2.254 and 2.359 and 2.203, the “mean A” value (DU145-TxR; [7]) was 2.239 and the “A at 565 nm” value (DU145-TxR; [7]) was 2.145 and 2.270 and 2.303. For the same compound, the “mean A” value (DU145-TxR; [8]) was 2.198, the “A at 565 nm” value (DU145-TxR; [8]) was 2.153 and 2.224 and 2.217 and the “mean A” value (DU145-TxR; [9]) was 2.137. The “A at 565 nm” value (DU145-TxR; [9]) was 2.092 and 2.151 and 2.170, the “mean A” value (DU145-TxR; [10]) was 2.220 and the “A at 565 nm” value (DU145-TxR; [10]) was 2.248 and 2.263 and 2.151. The “mean A” value (DU145-TxR; [11]) was 2.169, the “A at 565 nm” value (DU145-TxR; [11]) was 2.187 and 2.102 and 2.218 and the “mean A” value (DU145-TxR; [12]) was 2.217. For the same compound, the “A at 565 nm” value (DU145-TxR; [12]) was 2.177 and 2.229 and 2.246, the “mean A” value (DU145-TxR; [13]) was 2.103 and the “A at 565 nm” value (DU145-TxR; [13]) was 2.064 and 2.090 and 2.155. The “mean A” value (DU145-TxR; [14]) was 2.176, the “A at 565 nm” value (DU145-TxR; [14]) was 2.171 and 2.204 and 2.155 and the “mean A” value (DU145-TxR; [15]) was 2.011. For the same compound, the “A at 565 nm” value (DU145-TxR; [15]) was 2.086 and 2.018 and 1.930, the “mean A” value (DU145-TxR; [16]) was 0.956 and the “A at 565 nm” value (DU145-TxR; [16]) was 0.987 and 0.926 and 0.957. For the same compound, the “% viable” value (PC3; [17]) was 100.0%, the “mean A” value (PC3; [17]) was 1.839 and the “A at 565 nm” value (PC3; no wilforlide A pre-Tx (control of Table 4), docetaxel 0.001 nM 72 h, background = 0.043) was 1.827 and 1.892 and 1.800. For the same compound, the “% viable” value (PC3; [18]) was 102.0%, the “mean A” value (PC3; [18]) was 1.876 and the “A at 565 nm” value (PC3; no wilforlide A pre-Tx (control of Table 4), docetaxel 0.1 nM 72 h, background = 0.043) was 1.875 and 1.878. The “% viable” value (PC3; [19]) was 97.7%, the “mean A” value (PC3; [19]) was 1.796 and the “A at 565 nm” value (PC3; no wilforlide A pre-Tx (control of Table 4), docetaxel 0.333 nM 72 h, background = 0.043) was 1.845 and 1.808 and 1.737. For the same compound, the “% viable” value (PC3; [20]) was 74.7%, the “mean A” value (PC3; [20]) was 1.374 and the “A at 565 nm” value (PC3; no wilforlide A pre-Tx (control of Table 4), docetaxel 1 nM 72 h, background = 0.043) was 1.452 and 1.366 and 1.306. The “% viable” value (PC3; [21]) was 46.3%, the “mean A” value (PC3; [21]) was 0.851 and the “A at 565 nm” value (PC3; no wilforlide A pre-Tx (control of Table 4), docetaxel 3.33 nM 72 h, background = 0.043) was 0.862 and 0.832 and 0.860. The “% viable” value (PC3; [22]) was 22.5%, the “mean A” value (PC3; [22]) was 0.415 and the “A at 565 nm” value (PC3; no wilforlide A pre-Tx (control of Table 4), docetaxel 10 nM 72 h, background = 0.043) was 0.432 and 0.409 and 0.404. For the same compound, the “% viable” value (PC3; [23]) was 16.4%, the “mean A” value (PC3; [23]) was 0.303 and the “A at 565 nm” value (PC3; no wilforlide A pre-Tx (control of Table 4), docetaxel 33.3 nM 72 h, background = 0.043) was 0.321 and 0.295 and 0.293. For the same compound, the “% viable” value (PC3; [24]) was 15.9%, the “mean A” value (PC3; [24]) was 0.293 and the “A at 565 nm” value (PC3; no wilforlide A pre-Tx (control of Table 4), docetaxel 100 nM 72 h, background = 0.043) was 0.300 and 0.270 and 0.311. The “% viable” value (PC3; [25]) was 100.0%, the “mean A” value (PC3; [25]) was 1.952 and the “A at 565 nm” value (PC3; no wilforlide A pre-Tx (control of Table 6), docetaxel 0.001 nM 72 h, background = 0.044) was 1.888 and 2.010 and 1.957. For the same compound, the “% viable” value (PC3; [26]) was 100.7%, the “mean A” value (PC3; [26]) was 1.966 and the “A at 565 nm” value (PC3; no wilforlide A pre-Tx (control of Table 6), docetaxel 0.1 nM 72 h, background = 0.044) was 1.980 and 1.925 and 1.992. For the same compound, the “% viable” value (PC3; [27]) was 93.1%, the “mean A” value (PC3; [27]) was 1.817 and the “A at 565 nm” value (PC3; no wilforlide A pre-Tx (control of Table 6), docetaxel 0.333 nM 72 h, background = 0.044) was 1.735 and 1.845 and 1.871. The “% viable” value (PC3; [28]) was 70.9%, the “mean A” value (PC3; [28]) was 1.384 and the “A at 565 nm” value (PC3; no wilforlide A pre-Tx (control of Table 6), docetaxel 1 nM 72 h, background = 0.044) was 1.398 and 1.314 and 1.441. For the same compound, the “% viable” value (PC3; [29]) was 46.6%, the “mean A” value (PC3; [29]) was 0.909 and the “A at 565 nm” value (PC3; no wilforlide A pre-Tx (control of Table 6), docetaxel 3.33 nM 72 h, background = 0.044) was 0.895 and 0.942 and 0.889.
